# From patent publication US4308210A, “Nanaomycin B and therapeutic compositions containing same” (The Kitasato Institute, priority 1976, dated 1981)
# Where two headings read alike, the source gives them in different places.
# Experiments:
# [1] = tested on: various fungi of some species belonging to the genus Trichophyton; assay: Growth inhibition of fungi of the genus Trichophyton (text summary of Table 1); type: cell-based
# [2] = tested on: fungi (Test Organisms of Table 4); assay: Antifungal activity, comparison in words (Table 4); type: cell-based
# Trichophyton verrucosum = assay: Treatment of dermatomycosis of cattle caused by mass infection; type: in vivo; parameters: key: +++: complete removal of scales and recovered; ++: a little scales remained; +: removal of a part of scales; -: no removal of scale and no recovery
# Protocol: When dermatomycosis of cattle caused by mass infection of Trichophyton verrucosum is treated with nanaomycin B, nanaomycin B is dissolved or suspended in a suitable carrier, for example, olive oil, and is coated on the affected part directly with or without removal of the scales. […] The results obtained by coating nanaomycin B once and by twice coatings (the second coating is carried out a week after the first coating) are shown in tables 2 and 3, respectively.
# [3] = Activity of nanaomycin B itself; settings: in words
# [4] = tested on: Trichophyton interdigitale; assay: Antimicrobial spectrum, MIC, potato agar; type: cell-based; settings: 96 h, potato agar (pH 6.4, 4 days, 27° C.)
# [5] = tested on: Bacillus subtillis PCI 219; assay: Antimicrobial spectrum, MIC, nutrient agar; type: cell-based; settings: PCI219, 48 h, nutrient agar (pH 7.0, 2 days, 37° C.)
# Trichophyton roseum = assay: Antimicrobial spectrum, MIC, potato agar; type: cell-based; settings: 96 h, potato agar (pH 6.4, 4 days, 27° C.)
# [6] = tested on: Staphylococcus aureus FDA 209P; assay: Antimicrobial spectrum, MIC, nutrient agar; type: cell-based; settings: FDA209P, 48 h, nutrient agar (pH 7.0, 2 days, 37° C.)
# Mycobacterium smegmatis = assay: Antimicrobial spectrum, MIC, nutrient agar; type: cell-based; settings: Mycolicibacterium smegmatis, 48 h; nutrient agar (pH 7.0, 2 days, 37° C.)
# Protocol: (§1) Medium N nutrient agar (pH 7.0, 2 days, 37° C.)
# (§2) MIC Minimal inhibitory concentration
# [7] = tested on: Klebsiella pneumoniae PCI 602; assay: Antimicrobial spectrum, MIC, nutrient agar; type: cell-based; settings: PCI602, 48 h, nutrient agar (pH 7.0, 2 days, 37° C.)
# Protocol: as §1, §2
# Shigella flexneri = assay: Antimicrobial spectrum, MIC, nutrient agar; type: cell-based; settings: 48 h, nutrient agar (pH 7.0, 2 days, 37° C.)
# Protocol: as §1, §2
# Escherichia coli NIHJ = assay: Antimicrobial spectrum, MIC, nutrient agar; type: cell-based; settings: 48 h, nutrient agar (pH 7.0, 2 days, 37° C.)
# Protocol: as §1, §2
# Salmonella typhimurium = assay: Antimicrobial spectrum, MIC, nutrient agar; type: cell-based; settings: Salmonella enterica, 48 h, nutrient agar (pH 7.0, 2 days, 37° C.)
# Protocol: as §1, §2
# [8] = tested on: Acholeplasma laidlawii (B) Bml; assay: Antimicrobial spectrum, MIC, PPLO agar; type: cell-based; settings: 192 h
# Protocol: (§3) H Hokken PPLO agar (pH 7.8, 8 days, 37° C.)
# (§4) E Eiken PPLO agar (pH 7.8, 8 days, 37° C.)
# as §2
# [9] = tested on: Mycoplasma gallisepticum KP-13; assay: Antimicrobial spectrum, MIC, PPLO agar; type: cell-based; settings: Mycoplasmoides gallisepticum, KP13, 192 h
# Protocol: as §3, §4, §2
# [10] = tested on: Acholeplasma laidlawii (A) PG8; assay: Antimicrobial spectrum, MIC, PPLO agar; type: cell-based
# Protocol: as §3, §4, §2
# [11] = tested on: Mycoplasma gallisepticum 333P (Spiramycin resistant); assay: Antimicrobial spectrum, MIC, PPLO agar; type: cell-based; settings: for MIC: Mycoplasmoides gallisepticum, 192 h
# Protocol: as §3, §4, §2
# [12] = tested on: Mycoplasma gallisepticum S-6; assay: Antimicrobial spectrum, MIC, PPLO agar; type: cell-based; settings: Mycoplasmoides gallisepticum, S6, 192 h
# Protocol: as §3, §4, §2
# [13] = tested on: Escherichia coli NIHJ (JC-2); assay: Antimicrobial spectrum, MIC, nutrient agar; type: cell-based; settings: 48 h, nutrient agar (pH 7.0, 2 days, 37° C.)
# Trichophyton asteroides = assay: Antimicrobial spectrum, MIC, potato agar; type: cell-based; settings: 96 h, potato agar (pH 6.4, 4 days, 27° C.)
# [14] = tested on: Trichophyton mentagrophytes; assay: Antimicrobial spectrum, MIC, potato agar; type: cell-based; settings: 96 h, potato agar (pH 6.4, 4 days, 27° C.)
# Trichophyton purpureum = assay: Antimicrobial spectrum, MIC, potato agar; type: cell-based; settings: 96 h, potato agar (pH 6.4, 4 days, 27° C.)
# Trichophyton pedis 804 = assay: Antimicrobial spectrum, MIC, potato agar; type: cell-based; settings: Trichophyton pedis, 804, 96 h; potato agar (pH 6.4, 4 days, 27° C.)
# [15] = coating once, I direct coating on affected part, 0.1 mg/ml
# [16] = coating once, I direct coating on affected part, 1 mg/ml
# [17] = coating once, I direct coating on affected part, 10 mg/ml
# [18] = coating once, II coating after removing the scales, 0.1 mg/ml
# [19] = coating once, II coating after removing the scales, 1 mg/ml
# [20] = coating once, II coating after removing the scales, 10 mg/ml
# [21] = twice coatings (second a week after the first), I direct coating on affected part, 0.1 mg/ml
# [22] = twice coatings (second a week after the first), I direct coating on affected part, 1 mg/ml
# [23] = twice coatings (second a week after the first), I direct coating on affected part, 10 mg/ml
# [24] = twice coatings (second a week after the first), II coating after removing the scales, 0.1 mg/ml
# [25] = twice coatings (second a week after the first), II coating after removing the scales, 1 mg/ml
# [26] = twice coatings (second a week after the first), II coating after removing the scales, 10 mg/ml
# [27] = pH 7.8, Eiken PPLO agar (pH 7.8, 8 days, 37° C.)
# [28] = pH 7.8, Hokken PPLO agar (pH 7.8, 8 days, 37° C.)
compound,measurement,setting,value
CC1OC(CC(=O)O)CC2C(=O)c3cccc(O)c3C(=O)C12O (stereo not shown) [Nanaomycin B],MIC,"[1]; Trichophyton, 96 h, summary of Table 1, read-out: growth inhibited at a concentration",≤ 25 µg/mL
same,activity on trycophyton,[1]; in words,active
same,antifungal activity compared with deoxyfrenolicin,[2],slightly inferior
same,antifungal activity compared with ethylkalafunginate (ethylkalamycinate),[2],superior
same,antifungal activity when the pH of the medium is higher than 6.4,[2]; pH of medium higher than 6.4,stronger antifungal activity
same,Result after 1 week,Trichophyton verrucosum; [15],++
same,Result after 2 weeks,Trichophyton verrucosum; [15],++
same,Result after 3 weeks,Trichophyton verrucosum; [15],+++
same,Result after 4 weeks,Trichophyton verrucosum; [15],+++
same,Result after 1 week,Trichophyton verrucosum; [16],+++
same,Result after 2 weeks,Trichophyton verrucosum; [16],+++
same,Result after 3 weeks,Trichophyton verrucosum; [16],+++
same,Result after 4 weeks,Trichophyton verrucosum; [16],+++
same,Result after 1 week,Trichophyton verrucosum; [17],+++
same,Result after 2 weeks,Trichophyton verrucosum; [17],+++
same,Result after 3 weeks,Trichophyton verrucosum; [17],+++
same,Result after 4 weeks,Trichophyton verrucosum; [17],+++
same,Result after 1 week,Trichophyton verrucosum; [18],+++
same,Result after 2 weeks,Trichophyton verrucosum; [18],+++
same,Result after 3 weeks,Trichophyton verrucosum; [18],+++
same,Result after 4 weeks,Trichophyton verrucosum; [18],+++
same,Result after 1 week,Trichophyton verrucosum; [19],+++
same,Result after 2 weeks,Trichophyton verrucosum; [19],+++
same,Result after 3 weeks,Trichophyton verrucosum; [19],+++
same,Result after 4 weeks,Trichophyton verrucosum; [19],+++
same,Result after 1 week,Trichophyton verrucosum; [20],+++
same,Result after 2 weeks,Trichophyton verrucosum; [20],+++
same,Result after 3 weeks,Trichophyton verrucosum; [20],+++
same,Result after 4 weeks,Trichophyton verrucosum; [20],+++
same,Result after 1 week,Trichophyton verrucosum; [21],++
same,Result after 2 weeks,Trichophyton verrucosum; [21],+++
same,Result after 3 weeks,Trichophyton verrucosum; [21],+++
same,Result after 4 weeks,Trichophyton verrucosum; [21],+++
same,Result after 1 week,Trichophyton verrucosum; [22],++
same,Result after 2 weeks,Trichophyton verrucosum; [22],++
same,Result after 3 weeks,Trichophyton verrucosum; [22],+++
same,Result after 4 weeks,Trichophyton verrucosum; [22],+++
same,Result after 1 week,Trichophyton verrucosum; [23],+++
same,Result after 2 weeks,Trichophyton verrucosum; [23],+++
same,Result after 3 weeks,Trichophyton verrucosum; [23],+++
same,Result after 4 weeks,Trichophyton verrucosum; [23],+++
same,Result after 1 week,Trichophyton verrucosum; [24],+++
same,Result after 2 weeks,Trichophyton verrucosum; [24],+++
same,Result after 3 weeks,Trichophyton verrucosum; [24],+++
same,Result after 4 weeks,Trichophyton verrucosum; [24],+++
same,Result after 1 week,Trichophyton verrucosum; [25],+++
same,Result after 2 weeks,Trichophyton verrucosum; [25],+++
same,Result after 3 weeks,Trichophyton verrucosum; [25],+++
same,Result after 4 weeks,Trichophyton verrucosum; [25],+++
same,Result after 1 week,Trichophyton verrucosum; [26],+++
same,Result after 2 weeks,Trichophyton verrucosum; [26],+++
same,Result after 3 weeks,Trichophyton verrucosum; [26],+++
same,Result after 4 weeks,Trichophyton verrucosum; [26],+++
same,activity of nanaomycin B itself,[3],no or little activity
same,MIC,[4],12.5 µg/mL
same,MIC,[5],7.8 µg/mL
same,MIC,Trichophyton roseum,12.5 µg/mL
same,MIC,[6],3.9 µg/mL
same,MIC,Mycobacterium smegmatis,125 µg/mL
same,MIC,[7],31.3 µg/mL
same,MIC,Shigella flexneri,62.5 µg/mL
same,MIC,Escherichia coli NIHJ,15.6 µg/mL
same,MIC,Salmonella typhimurium,62.5 µg/mL
same,MIC,[8]; [27],> 25 µg/mL
same,MIC,[8]; [28],25 µg/mL
same,MIC,[9]; [28],< 0.013 µg/mL
same,MIC,"[9]; Eiken PPLO agar (pH 7.8, 8 days, 37° C.), read-out: MIC",0.1 µg/mL
same,MIC,"[10]; Acholeplasma laidlawii, 192 h, Hokken PPLO agar (pH 7.8, 8 days, 37° C.), read-out: MIC",> 25 µg/mL
same,MIC,"[10]; Eiken PPLO agar (pH 7.8, 8 days, 37° C.)",> 25 µg/mL
same,MIC,[11]; [27],0.05 µg/mL
same,MIC,[11]; [28],0.013 µg/mL
same,antimicrobial activity on spiramycin-resistant Mycoplasma gallisepticum,[11]; in words,high antimicrobial activity
same,MIC,[12]; [27],0.1 µg/mL
same,MIC,[12]; [28],< 0.013 µg/mL
same,MIC,[13],500 µg/mL
same,MIC,Trichophyton asteroides,12.5 µg/mL
same,MIC,[14],25 µg/mL
same,MIC,Trichophyton purpureum,25 µg/mL
same,MIC,Trichophyton pedis 804,3.1 µg/mL
